From ChEMBL document CHEMBL1201862, “PubChem BioAssay data set” (2004) come the findings set out here.

Structures are written as SMILES.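 Step 1: Grow cells in 96-well plates. Step 2: Expose to compound for 48 hours at 5 concentrations. Step 3: Interpolate endpoints linearly; if unreached, use highest concentration. Abbreviation: GI50, concentration required for 50% inhibition of growth.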 Active and inactive are the calls of the source. Rule as the data show it: active = GI50 up to about 1.1 µM and inactive = higher. Bounds are passed on as bounds.

Test systems include A498; HCT-15; HL-60; IGROV-1; MOLT-4; Malme-3M; NCI-H226; NCI-H23; OVCAR-5; SF-539; SK-MEL-28; SK-OV-3; SN12C; SNB-19; SR; SW-620; TK-10; U-251; OVCAR-8; SK-MEL-2.
Common to all, as to test: growth of human tumour cells (NCI), 48 h

As for `O=C1NC2(CCCCC2)C2CCCCCC12` (stereo not given), the GI50 in the assay with A498 was > 100 µM (inactive); in the assay on HCT-15, greater than 100 µM; in the assay with HL-60 it was > 100 µM (inactive); in the assay on IGROV-1, > 100 µM (inactive); in the assay on MOLT-4, > 100 µM (inactive); in the assay with Malme-3M, > 100 µM (inactive). Besides, the GI50 with NCI-H226, with NCI-H23, with OVCAR-5, with SF-539, with SK-MEL-28 and with SK-OV-3 was > 100 µM (inactive) each time. The GI50 in the assay with SN12C, in the assay on SNB-19, in the assay with SR, in the assay with SW-620, in the assay on TK-10 and in the assay with U-251 was > 100 µM (inactive) in each case.

Regarding `COc1ccc([C@H]2C=[N+]([O-])O[C@H](OC3CCCC3)[C@@H]2OC(C)=O)cc1OC`, the GI50 in the assay with A498 is > 100 µM (inactive); in the assay on HCT-15, 29.2 µM; in the assay with HL-60, 18.5 µM (inactive); with IGROV-1 it was 18.3 µM (inactive); in the assay on MOLT-4, 32.6 µM (inactive); in the assay on Malme-3M it was 25.9 µM (inactive). The GI50 with NCI-H226 was 47.6 µM (inactive); in the assay on NCI-H23, 25.6 µM (inactive); in the assay with OVCAR-8 it was 20.7 µM (inactive); with SF-539, 16.4 µM (inactive); in the assay on SK-MEL-28, 20.8 µM (inactive); in the assay with SK-MEL-2, 69.3 µM (inactive). Besides, the GI50 in the assay with SK-OV-3 is > 100 µM (inactive); in the assay with SNB-19 it was > 100 µM (inactive); with SR, 41.8 µM (inactive); in the assay on SW-620, 19.8 µM (inactive); with TK-10, 23.1 µM (inactive); in the assay on U-251, 35 µM (inactive).

For the compound `CCOC(=O)c1csc(NC(=O)CCCC#N)n1`, the GI50 is > 100 µM (inactive) in the assay on A498; greater than 100 µM in the assay with HCT-15; > 100 µM (inactive) with HL-60; > 100 µM (inactive) in the assay on MOLT-4; > 100 µM (inactive) with NCI-H226; > 100 µM (inactive) in the assay with NCI-H23. Further, the GI50 with OVCAR-5, with OVCAR-8, in the assay on SF-539, in the assay on SK-MEL-28, with SK-MEL-2 and in the assay on SK-OV-3 was > 100 µM (inactive) in each case. The GI50 in the assay on SNB-19, in the assay with SR, in the assay with SW-620, in the assay with TK-10 and with U-251 was > 100 µM (inactive) each time.

In the case of `CO/C(=N/N1CC1C(F)(F)F)c1ccncc1` (stereo not given), the GI50 in the assay on A498 is > 100 µM (inactive); in the assay with HCT-15, greater than 100 µM; in the assay with HL-60 it was > 100 µM (inactive); in the assay on IGROV-1, > 100 µM (inactive); in the assay on MOLT-4 it was 30.8 µM (inactive); with Malme-3M, > 100 µM (inactive). Moreover, the GI50 with NCI-H226, in the assay with NCI-H23, with OVCAR-5, in the assay on OVCAR-8, with SK-MEL-28 and in the assay on SK-MEL-2 was > 100 µM (inactive) each time. In addition, the GI50 is 54.7 µM (inactive) in the assay with SK-OV-3; > 100 µM (inactive) in the assay on SN12C; > 100 µM (inactive) in the assay on SNB-19; > 100 µM (inactive) in the assay on SR; > 100 µM (inactive) in the assay with U-251.

On to `N#CC(=N)c1ncn(-c2ccccc2N)c1N`, for which the GI50 in the assay on A498 was > 100 µM (inactive); in the assay on HCT-15, greater than 100 µM; in the assay with HL-60, > 100 µM (inactive); in the assay with IGROV-1, > 100 µM (inactive); with MOLT-4 it was > 100 µM (inactive); in the assay on Malme-3M, > 100 µM (inactive). Moreover, the GI50 in the assay on NCI-H226, with NCI-H23, with OVCAR-5, with OVCAR-8, in the assay on SF-539 and in the assay with SK-MEL-28 was > 100 µM (inactive) in each case. Also, the GI50 in the assay on SK-MEL-2, in the assay on SK-OV-3, in the assay with SN12C, in the assay on SNB-19, with SR and in the assay with SW-620 was > 100 µM (inactive) throughout. Further, the GI50 with TK-10 and in the assay with U-251 was > 100 µM (inactive) in each case.

As to `Cc1ccc([N+](=O)[O-])cc1/N=N/C(=O)NNc1cc([N+](=O)[O-])ccc1C`, the GI50 in the assay on A498 is 21.4 µM (inactive); in the assay on HCT-15, 21.7 µM; with HL-60, 48.2 µM (inactive); with IGROV-1, > 10 µM (inactive); in the assay on MOLT-4 it was 9.29 µM (inactive); with Malme-3M, 37.6 µM (inactive). For the same compound, the GI50 is > 10 µM (inactive) in the assay with NCI-H226; 48.9 µM (inactive) with NCI-H23; 51.3 µM (inactive) in the assay on OVCAR-5; 27 µM (inactive) in the assay on OVCAR-8; 26.8 µM (inactive) with SK-MEL-28; 24 µM (inactive) in the assay with SK-MEL-2. Also, the GI50 in the assay with SK-OV-3 was 11.1 µM (inactive); with SN12C it was > 10 µM (inactive); in the assay on SNB-19, 41.9 µM (inactive); in the assay on SR, 52.8 µM (inactive); in the assay with U-251, 32.9 µM (inactive).

Consider `CCOC(=O)CC(NC(=O)c1ccc(/N=N/N(C)C)cc1)C(=O)OCC` (stereo not given), for which the GI50 was > 100 µM (inactive) with A498; greater than 100 µM in the assay with HCT-15; > 100 µM (inactive) in the assay on HL-60; > 100 µM (inactive) in the assay on IGROV-1; > 100 µM (inactive) in the assay on MOLT-4; > 100 µM (inactive) with Malme-3M. Moreover, the GI50 in the assay on NCI-H226, in the assay with NCI-H23, in the assay on OVCAR-5, in the assay with OVCAR-8, in the assay with SF-539 and in the assay with SK-MEL-28 was > 100 µM (inactive) each time. Also, the GI50 in the assay with SK-MEL-2, in the assay with SK-OV-3, in the assay on SN12C, in the assay on SNB-19, in the assay on SR and in the assay on SW-620 was > 100 µM (inactive) each time. Besides, the GI50 in the assay with TK-10 and in the assay with U-251 was > 100 µM (inactive) in each case.

As for `CSC1NC(c2ccccc2)=C(C#N)C(=O)N1C1OCC(OC(C)=O)C(OC(C)=O)C1OC(C)=O` (stereo not given), the GI50 with A498 is > 100 µM (inactive); in the assay with HCT-15, greater than 100 µM; with IGROV-1, > 100 µM (inactive); in the assay on MOLT-4 it was > 100 µM (inactive); in the assay with Malme-3M, > 100 µM (inactive); in the assay on NCI-H226, > 100 µM (inactive). Further, the GI50 in the assay with NCI-H23, in the assay with OVCAR-5, in the assay with OVCAR-8, with SF-539, with SK-MEL-28 and in the assay on SK-OV-3 was > 100 µM (inactive) in each case. Also, the GI50 in the assay with SN12C, in the assay with SNB-19, in the assay with SR, in the assay with SW-620, with TK-10 and in the assay with U-251 was > 100 µM (inactive) each time.

On to `COC(=O)c1cccc(C(=O)OC)c1`, for which the GI50 with A498 is > 100 µM (inactive); in the assay on HCT-15, greater than 100 µM; in the assay with HL-60 it was > 100 µM (inactive); in the assay on MOLT-4 it was > 100 µM (inactive); with Malme-3M, > 100 µM (inactive); in the assay with NCI-H226 it was > 100 µM (inactive). The GI50 with NCI-H23, in the assay with OVCAR-5, with SK-MEL-28, in the assay with SK-MEL-2, in the assay on SK-OV-3 and with SN12C was > 100 µM (inactive) throughout. The GI50 in the assay with SNB-19, in the assay with SR, in the assay on SW-620, with TK-10 and with U-251 was > 100 µM (inactive) throughout.

Regarding `CCOC(=O)c1nc2cc(C(F)(F)F)ccc2nc1Oc1ccc(F)cc1`, the GI50 is > 100 µM (inactive) with A498; greater than 100 µM in the assay on HCT-15; 63.4 µM (inactive) with HL-60; > 100 µM (inactive) in the assay with IGROV-1; > 100 µM (inactive) with MOLT-4; > 100 µM (inactive) in the assay with Malme-3M. In addition, the GI50 with NCI-H226, with OVCAR-5, in the assay with OVCAR-8, in the assay with SF-539, with SK-MEL-28 and with SK-MEL-2 was > 100 µM (inactive) in each case. Besides, the GI50 in the assay on SN12C, with SNB-19, in the assay with SR, with SW-620, in the assay on TK-10 and in the assay on U-251 was > 100 µM (inactive) each time.

Take `COc1nc(N)nc2nc[nH]c12`: the GI50 in the assay on A498 is 228 µM (inactive); with HCT-15, 445 µM; in the assay on HL-60, 383 µM (inactive); in the assay with IGROV-1, 239 µM (inactive); in the assay on MOLT-4 it was 474 µM (inactive); with Malme-3M it was 290 µM (inactive). For the same compound, the GI50 with NCI-H226 was 318 µM (inactive); in the assay on NCI-H23, > 500 µM (inactive); in the assay on OVCAR-5, 345 µM (inactive); in the assay on OVCAR-8 it was > 500 µM (inactive); with SF-539, 495 µM (inactive); in the assay with SK-MEL-28 it was > 419 µM (inactive). Further, the GI50 in the assay on SK-MEL-2 was 460 µM (inactive); with SK-OV-3, 129 µM (inactive); in the assay with SN12C, 441 µM (inactive); in the assay with SNB-19, > 500 µM (inactive); in the assay on SR it was 313 µM (inactive); with SW-620 it was > 500 µM (inactive). Also, the figures for the GI50 in the assay on TK-10 and in the assay on U-251 were 242 µM (inactive) and 488 µM (inactive), respectively.
